From US20260216239A1 (Arizona Board of Regents on Behalf of the University of …, priority 2020, published 2026)

Experiments:
[1] = test system: C. scutulatus scutulatus venom; settings: CORM-2 as single agent; cited from earlier work
[2] = large dose of CORM-2 injected intravenously into rabbits; cited from earlier work
[3] = molecular target: Mojave rattlesnake (Crotalus scutulatus scutulatus) venom type A (Crotalus scutulatus scutulatus, UniProt P62023); experiment: Thrombelastography in human plasma of PLA2-dependent anticoagulant activity of venom; type: biochemical
Protocol: With regard to materials and methods, Mojave rattlesnake (Crotalus scutulatus scutulatus) venom type A was originally obtained from the National Natural Toxins Research Center (NNTRC) located at Texas A&M University-Kingsville, Kingsville, TX, U.S.A. A previously unthawed aliquot of this venom used in a previous work (see, Nielsen V G (2019) J Thromb Thrombolysis 48, 256-262) was dissolved in calcium-free phosphate buffered saline (PBS, Sigma-Aldrich, Saint Louis, MO, USA) at a concentration of 50 mg/ml, and had been stored at −80° C. RuCl3 as obtained from Sigma-Aldrich, Saint Louis, MO, USA. Calcium chloride (CaCl2, 200 mM) was obtained from Haemonetics Inc., Braintree, MA, USA. Lastly, pooled normal human plasma (George King Bio-Medical, Overland Park, KS, USA) anticoagulated with sodium citrate (9 parts blood to 1 part 0.105M sodium citrate) stored at −80° C. was utilized in all subsequently described experiments.
Specific volumes of subsequently described plasma and chemical additives varied by condition but summated to 360 μl. Sample composition consisted of 320 μl of plasma; 16.4 μl of PBS, 20 μl of 200 mM CaCl2, and 3.6 μl of one of five subsequently described solutions, which were placed into a disposable cup in a computer-controlled Thrombelastograph® hemostasis system (Model 5000, Haemonetics Inc., Braintree, MA, USA) at 37° C., and then rapidly mixed by moving the cup up against and then away from the plastic pin five times before leaving the mixture between the cup and pin. The following elastic modulus-based parameters previously described (see, Nielsen V G (2019) J Thromb Thrombolysis 48, 256-262; Nielsen V G, Frank N, Matika R W (2018) Biometals 31, 51-59; Nielsen V G, Frank N, Turchioe B J (2019) Blood Coagul Fibrinolysis 30, 379-384; Nielsen V G (2021) J Thromb Thrombolysis, doi: 10.1007/s11239-020-02373-4) were determined: time to maximum rate of thrombus generation (TMRTG): this is the time interval (minutes) observed prior to maximum speed of clot growth; maximum rate of thrombus generation (MRTG): this is the maximum velocity of clot growth observed (dynes/cm^2/second); and total thrombus generation (TTG, dynes/cm^2), the final viscoelastic resistance observed after clot formation. Data were collected until maximum amplitude was reached as determined by the software of the thrombelastographic system.
Experiments involving plasma exposure to RuCl3 and venom utilized the following five experimental conditions: 1) control condition (C)—no venom, 1% addition of PBS (v/v) to plasma; 2) RuCl3 in water condition (R/W)—no venom, 1% addition (v/v) of 100 μM RuCl3 dissolved in water to plasma (final concentration 1 μM); 3) RuCl3 in PBS condition (R/P)—no venom, 1% addition (v/v) of 100 μM RuCl3 dissolved in PBS to plasma (final concentration 1 μM); 4) venom condition (V)—venom addition (v/v, 125 ng/ml final concentration as previously reported) in PBS to plasma; and, 5) venom exposed to RuCl3 dissolved in PBS condition (V+R/P)—venom and 100 μM RuCl3 1% addition (v/v) in PBS to plasma. All the solutions used for these five conditions to be placed in plasma remained at room temperature for five minutes prior to addition.

[4] = venom exposed 5 min to 100 μM RuCl3 in PBS vs RuCl3 naïve venom, venom 125 ng/ml

SMILES | anticoagulant effects of venom in vitro [1] | tolerability [2] | neurotoxic, anticoagulant PLA2 activity ([3]; RuCl3 dissolved in PBS, 100 μM) | decrease in TMRTG values [3, 4] [%] | increase in MRTG values [3, 4] [%] | increase in TTG values [3, 4] [%] | TMRTG, MRTG or TTG values ([3]; venom exposed to 100 μM RuCl3 in PBS vs control condition (no venom))
[C-]#[O+].[C-]#[O+].[C-]#[O+].[C-]#[O+].[C-]#[O+].[C-]#[O+].[Cl][Ru][Cl].[Cl][Ru][Cl] [CORM-2, tricarbonyldichlororuthenium(II) dimer] | very effectively abrogated | well tolerated |  |  |  |  | 
[Cl][Ru]([Cl])[Cl] [RuCl3, ruthenium(III) chloride] |  |  | inhibited | 47 | 375 | 231 | no significant differences
